Here are results for 24 compounds from patent publication US10202389B2, “Pyrazolopyrimidinyl inhibitors of ubiquitin-activating enzyme” (Millennium Pharmaceuticals, Inc., priority 2012, dated 2019).

This experiment deals with recombinant human UAE (Homo sapiens (Human), UniProt P22314). Description: Ubiquitin Activating Enzyme (UAE) HTRF Assay. As to conditions: read-out: % inhibition @0.111 μM.
Chain of recombinant human UAE (P22314 whole entry): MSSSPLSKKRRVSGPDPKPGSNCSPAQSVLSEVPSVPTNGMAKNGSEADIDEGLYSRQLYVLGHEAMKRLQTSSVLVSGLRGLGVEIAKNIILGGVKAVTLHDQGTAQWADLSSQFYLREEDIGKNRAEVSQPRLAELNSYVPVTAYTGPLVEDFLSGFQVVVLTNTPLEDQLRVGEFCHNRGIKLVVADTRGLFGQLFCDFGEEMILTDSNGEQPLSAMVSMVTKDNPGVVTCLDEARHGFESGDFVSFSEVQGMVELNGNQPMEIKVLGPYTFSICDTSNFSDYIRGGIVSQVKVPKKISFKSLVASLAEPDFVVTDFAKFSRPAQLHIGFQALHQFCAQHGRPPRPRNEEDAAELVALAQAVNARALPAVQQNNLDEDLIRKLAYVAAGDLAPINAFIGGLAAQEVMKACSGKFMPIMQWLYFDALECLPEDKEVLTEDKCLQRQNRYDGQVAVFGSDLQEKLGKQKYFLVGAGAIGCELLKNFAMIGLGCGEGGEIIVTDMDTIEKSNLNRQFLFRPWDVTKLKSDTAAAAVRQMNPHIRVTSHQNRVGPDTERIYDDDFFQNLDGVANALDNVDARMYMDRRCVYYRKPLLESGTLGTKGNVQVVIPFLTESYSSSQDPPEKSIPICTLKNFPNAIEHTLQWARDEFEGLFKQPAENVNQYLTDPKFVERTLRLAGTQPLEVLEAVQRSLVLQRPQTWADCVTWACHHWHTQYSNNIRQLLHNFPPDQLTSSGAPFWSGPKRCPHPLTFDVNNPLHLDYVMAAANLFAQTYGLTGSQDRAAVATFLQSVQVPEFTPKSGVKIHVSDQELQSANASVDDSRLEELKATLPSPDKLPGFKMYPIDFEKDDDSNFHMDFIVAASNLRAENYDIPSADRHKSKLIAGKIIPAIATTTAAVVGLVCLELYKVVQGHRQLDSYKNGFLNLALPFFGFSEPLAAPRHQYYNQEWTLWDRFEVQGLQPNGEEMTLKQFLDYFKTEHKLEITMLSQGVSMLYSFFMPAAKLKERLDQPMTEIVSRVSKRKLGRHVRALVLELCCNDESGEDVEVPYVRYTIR

Protocol: After incubation for 120 minutes, quantification of the FRET is performed on the Pherostar (BMG).
For compounds whose values are marked with an asterisk (*), mouse UAE was used. For all other compounds, human UAE was used.

For `NS(=O)(=O)OC[C@H]1C[C@@H](Nc2ccnc3cc(-c4ccc5cccnc5c4)nn23)[C@H](O)[C@@H]1O` (relative stereo) [Compound I-043, (rac)-((1R,2R,3S,4R)-2,3-dihydroxy-4-(2-(quinolin-7-yl)pyrazolo[1,5-a]pyrimidin-7-ylamino)cyclopentyl)methyl rel-sulfamate], the inhibition at 0.111 µM was determined as 100%.
Consider `NS(=O)(=O)OC[C@H]1C[C@@H](Nc2ccnc3cc(-c4cccc(C5CCCC5)c4)nn23)[C@H](O)[C@@H]1O` (relative stereo) [Compound I-048, (rac)-[(1R,2R,3S,4R)-4-{[2-(3-cyclopentylphenyl)pyrazolo[1,5-a]pyrimidin-7-yl]amino}-2,3-dihydroxycyclopentyl]methyl rel-sulfamate], for which the inhibition at 0.111 µM turned out to be 100%.
With `NS(=O)(=O)OC[C@H]1C[C@@H](Nc2ccnc3cc(-c4cccc(C(F)(F)F)c4)nn23)[C@H](O)[C@@H]1O` (relative stereo) [Compound I-007, (rac)-((1R,2R,3S,4R)-2,3-Dihydroxy-4-((2-(3-(trifluoromethyl)phenyl)pyrazolo[1,5-a]pyrimidin-7-yl)amino)cyclopentyl)methyl rel-sulfamate], the inhibition at 0.111 µM is 99%.
Take `NS(=O)(=O)OC[C@H]1C[C@@H](Nc2ccnc3cc(-c4cccc(N5CCCC5=O)c4)nn23)[C@H](O)[C@@H]1O` (relative stereo) [Compound I-087, (rac)-((1R,2R,3S,4R)-2,3-dihydroxy-4-(2-(3-(2-oxopyrrolidin-1-yl)phenyl)pyrazolo[1,5-a]pyrimidin-7-ylamino)cyclopentyl)methyl rel-sulfamate]: the inhibition at 0.111 µM amounted to 100%.
As for `NS(=O)(=O)OC[C@H]1C[C@@H](Nc2ccnc3cc(-c4ccc(C(F)(F)F)c5cccnc45)nn23)[C@H](O)[C@@H]1O` (relative stereo) [Compound I-033, (rac)-((1R,2R,3S,4R)-2,3-dihydroxy-4-(2-(5-(trifluoromethyl)quinolin-8-yl)pyrazolo[1,5-a]pyrimidin-7-ylamino)cyclopentyl)methyl rel-sulfamate], the inhibition at 0.111 µM is 98%.
With `CC(C)(c1cccc(-c2cc3nccc(N[C@@H]4C[C@H](COS(N)(=O)=O)[C@@H](O)[C@H]4O)n3n2)c1)C(F)(F)F` (relative stereo) [Compound I-058, (rac)-((1R,2R,3S,4R)-2,3-dihydroxy-4-(2-(3-(1,1,1-trifluoro-2-methylpropan-2-yl)phenyl)pyrazolo[1,5-a]pyrimidin-7-ylamino)cyclopentyl)methyl rel-sulfamate], the inhibition at 0.111 µM amounted to 100%.
In the case of `NS(=O)(=O)OC[C@H]1C[C@@H](Nc2ccnc3cc(-c4cc(Cl)ccc4OC(F)(F)F)nn23)[C@H](O)[C@@H]1O` (relative stereo) [Compound I-057, (rac)-((1R,2R,3S,4R)-4-(2-(5-chloro-2-(trifluoromethoxy)phenyl)pyrazolo[1,5-a]pyrimidin-7-ylamino)-2,3-dihydroxycyclopentyl)methyl rel-sulfamate], the inhibition at 0.111 µM is 100%.
With `C#Cc1cccc(-c2cc3nccc(N[C@@H]4C[C@H](COS(N)(=O)=O)[C@@H](O)[C@H]4O)n3n2)c1` (relative stereo) [Compound I-083, (rac)-[(1R,2R,3S,4R)-4-{[2-(3-ethynylphenyl)pyrazolo[1,5-a]pyrimidin-7-yl]amino}-2,3-dihydroxycyclopentyl]methyl rel-sulfamate], the inhibition at 0.111 µM is 100%.
`NS(=O)(=O)OC[C@H]1C[C@@H](Nc2ccnc3cc(-c4ccc(SC(F)(F)F)cc4)nn23)[C@H](O)[C@@H]1O` (relative stereo) [Compound I-080, (rac)-((1R,2R,3S,4R)-2,3-dihydroxy-4-(2-(4-(trifluoromethylthio)phenyl)pyrazolo[1,5-a]pyrimidin-7-ylamino)cyclopentyl)methyl rel-sulfamate]: the inhibition at 0.111 µM stood at 80%.
As for `CC(CO)(CCl)c1cccc(-c2cc3nccc(N[C@@H]4C[C@H](COS(N)(=O)=O)[C@@H](O)[C@H]4O)n3n2)c1` (relative stereo) [Compound I-123, (rac)-{(1R,2R,3S,4R)-4-[(2-{3-[2-chloro-1-(hydroxymethyl)-1-methylethyl]phenyl}pyrazolo[1,5-a]pyrimidin-7-yl)amino]-2,3-dihydroxycyclopentyl}methyl rel-sulfamate], the inhibition at 0.111 µM was determined as 100%.
Consider `NS(=O)(=O)OC[C@H]1C[C@@H](Nc2ccnc3cc(-c4ccccc4Oc4ccccc4)nn23)[C@H](O)[C@@H]1O` (relative stereo) [Compound I-068, (rac)-((1R,2R,3S,4R)-2,3-dihydroxy-4-(2-(2-phenoxyphenyl)pyrazolo[1,5-a]pyrimidin-7-ylamino)cyclopentyl)methyl rel-sulfamate], for which the inhibition at 0.111 µM came to 95%.
Turning to `COc1ccc(-c2cc3nccc(N[C@@H]4C[C@H](COS(N)(=O)=O)[C@@H](O)[C@H]4O)n3n2)c2ccccc12` [Compound I-106, (s.e.)-((1R,2R,3S,4R)-2,3-dihydroxy-4-(2-(4-methoxynaphthalen-1-yl)pyrazolo[1,5-a]pyrimidin-7-ylamino)cyclopentyl)methyl sulfamate], the inhibition at 0.111 µM was determined as 100%.
As for `NS(=O)(=O)OC[C@H]1C[C@@H](Nc2ccnc3cc(-c4csc5ccc(F)cc45)nn23)[C@H](O)[C@@H]1O` (relative stereo) [Compound I-081, (rac)-((1R,2R,3S,4R)-4-(2-(5-fluorobenzo[b]thiophen-3-yl)pyrazolo[1,5-a]pyrimidin-7-ylamino)-2,3-dihydroxycyclopentyl)methyl rel-sulfamate], the figure is 100%; as for `NS(=O)(=O)OC[C@H]1C[C@@H](Nc2ccnc3cc(-c4ccc5ncccc5c4)nn23)[C@H](O)[C@@H]1O` (relative stereo) [Compound I-034, (rac)-((1R,2R,3S,4R)-2,3-dihydroxy-4-(2-(quinolin-6-yl)pyrazolo[1,5-a]pyrimidin-7-ylamino)cyclopentyl)methyl rel-sulfamate], 100%.
For the compound `Cc1cc(N[C@@H]2C[C@H](COS(N)(=O)=O)[C@@H](O)[C@H]2O)n2nc(-c3ccccc3)cc2n1` (relative stereo) [Compound I-004, (rac)-{(1R,2R,3S,4R)-2,3-dihydroxy-4-[(5-methyl-2-phenylpyrazolo[1,5-a]pyrimidin-7-yl)amino]cyclopentyl}methyl rel-sulfamate], the inhibition at 0.111 µM turned out to be 31%.
For `NS(=O)(=O)OC[C@H]1C[C@@H](Nc2ccnc3cc(-c4ccnc5cc(Cl)ccc45)nn23)[C@H](O)[C@@H]1O` (relative stereo) [Compound I-039, (rac)-((1R,2R,3S,4R)-4-(2-(7-chloroquinolin-4-yl)pyrazolo[1,5-a]pyrimidin-7-ylamino)-2,3-dihydroxycyclopentyl)methyl rel-sulfamate] the value was 100%; for `NS(=O)(=O)OC[C@H]1C[C@@H](Nc2ccnc3cc(-c4ccc5c(c4)[nH]c4ccccc45)nn23)[C@H](O)[C@@H]1O` (relative stereo) [Compound I-062, (rac)-[(1R,2R,3S,4R)-4-{[2-(9H-carbazol-2-yl)pyrazolo[1,5-a]pyrimidin-7-yl]amino}-2,3-dihydroxycyclopentyl]methyl rel-sulfamate], 100%.
Turning to `NS(=O)(=O)OC[C@H]1C[C@@H](Nc2ccnc3cc(-c4ccc(Cl)c5ccccc45)nn23)[C@H](O)[C@@H]1O` [Compound I-108, (s.e.)-[(1R,2R,3S,4R)-4-{[2-(4-chloro-1-naphthyl)pyrazolo[1,5-a]pyrimidin-7-yl]amino}-2,3-dihydroxycyclopentyl]methyl sulfamate], the inhibition at 0.111 µM was found to be 100%.
`CC(C)Oc1ccc2ccccc2c1-c1cc2nccc(N[C@@H]3C[C@H](COS(N)(=O)=O)[C@@H](O)[C@H]3O)n2n1` [Compound I-109, (s.e.)-((1R,2R,3S,4R)-2,3-dihydroxy-4-(2-(2-isopropoxynaphthalen-1-yl)pyrazolo[1,5-a]pyrimidin-7-ylamino)cyclopentyl)methyl sulfamate]: the inhibition at 0.111 µM worked out at 100%.
Turning to `CCc1ccc2scc(-c3cc4nccc(N[C@@H]5C[C@H](COS(N)(=O)=O)[C@@H](O)[C@H]5O)n4n3)c2c1` (relative stereo) [Compound I-094, (rac)-((1R,2R,3S,4R)-4-(2-(5-ethylbenzo[b]thiophen-3-yl)pyrazolo[1,5-a]pyrimidin-7-ylamino)-2,3-dihydroxycyclopentyl)methyl rel-sulfamate], the inhibition at 0.111 µM came out at 100%.
Take `NS(=O)(=O)OC[C@H]1C[C@@H](Nc2ccnc3cc(-c4ccc5cc(F)ccc5c4)nn23)[C@H](O)[C@@H]1O` [Compound I-113, (s.e.)-((1R,2R,3S,4R)-4-(2-(6-fluoronaphthalen-2-yl)pyrazolo[1,5-a]pyrimidin-7-ylamino)-2,3-dihydroxycyclopentyl)methyl sulfamate]: the inhibition at 0.111 µM came to 100%.
In the case of `COC(C)(C)c1cccc(-c2cc3nccc(N[C@@H]4C[C@H](COS(N)(=O)=O)[C@@H](O)[C@H]4O)n3n2)c1` (relative stereo) [Compound I-082, (rac)-((1R,2R,3S,4R)-2,3-dihydroxy-4-(2-(3-(2-methoxypropan-2-yl)phenyl)pyrazolo[1,5-a]pyrimidin-7-ylamino)cyclopentyl)methyl rel-sulfamate], the inhibition at 0.111 µM was 100%.
For the compound `C[Si](C)(C)c1cccc(-c2cc3nccc(N[C@@H]4C[C@H](COS(N)(=O)=O)[C@@H](O)[C@H]4O)n3n2)c1` (relative stereo) [Compound I-035, (rac)-((1R,2R,3S,4R)-2,3-dihydroxy-4-(2-(3-(trimethylsilyl)phenyl)pyrazolo[1,5-a]pyrimidin-7-ylamino)cyclopentyl)methyl rel-sulfamate], the inhibition at 0.111 µM is 100%.
In the case of `Cc1sc(-c2ccccc2)nc1-c1cc2nccc(N[C@@H]3C[C@H](COS(N)(=O)=O)[C@@H](O)[C@H]3O)n2n1` (relative stereo) [Compound I-038, (rac)-[(1R,2R,3S,4R)-2,3-dihydroxy-4-{[2-(5-methyl-2-phenyl-1,3-thiazol-4-yl)pyrazolo[1,5-a]pyrimidin-7-yl]amino}cyclopentyl]methyl rel-sulfamate], the inhibition at 0.111 µM worked out at 100%.

For orientation: inhibition means the drop in the measured response relative to a control, in per cent.
